{"source": "paper PMC3689833", "about": "“Neurochemical Changes in the Mouse Hippocampus Underlying the Antidepressant Effect of Genetic Deletion of P2X7 Receptors” (PLoS ONE, 2013)", "key": {"acute hippocampal slices": {"system": "acute hippocampal slices", "experiment": "[3H]Glutamate and endogenous glutamate release from acute hippocampal slices", "assay_type": "cell-based, mouse", "settings": "P2rx7−/− slices, ATP 10 mM, antagonist 100 nM 15 min before ATP", "description": "The [^3H]Glu release experiments were conducted using the method described in our previous papers. Briefly, the mice were anaesthetized under light CO2 inhalation, and subsequently decapitated. The hippocampus was dissected from each mouse in ice-cold Krebs solution saturated with 95% O2 and 5% CO2, sectioned (400-µm-thick slices) using a McIlwain tissue chopper and incubated in 1 ml of modified Krebs solution (113 mM NaCl, 4.7 mM KCl, 2.5 mM CaCl2, 1.2 mM KH2PO4, 1.2 mM MgSO4, 25.0 mM NaHCO3, and 11.5 mM glucose), pH 7.4, in the presence of 5 µCi/ml [^3H]glutamic acid ([^3H]Glu, 9.8×10^−8 M, specific activity 51 Ci/mmol; Perkin Elmer) for 45 min. The medium was bubbled with 95% O2 and 5% CO2 and maintained at 32°C. After loading, the slices were continuously superfused with 95% O2 and 5% CO2-saturated modified Krebs solution (flow rate: 0.7 ml/min).\nSubsequently, the perfused samples were collected over a 3-min period and measured for tritium content. At 6 min after the start of the collection, the slices were subjected to a 6-min perfusion of the agonist (ATP) at various concentrations (1, 3, 6 and 10 mM) and then changed to normal Krebs solution until the end of the collection period. In some experiments, the P2X1 receptor antagonist, NF449 (100 nM), or the selective P2rx7 antagonist Brilliant blue G (100 nM) was applied to the perfusion solution at 15 min before the beginning of the ATP perfusion.\nThe radioactivity released from the preparations was measured using a Packard 1900 Tricarb liquid scintillation spectrometer, using Ultima Gold Scintillation cocktail. The release of tritium was expressed as a percentage of the amount of radioactivity in the tissue at the sample collection time (fractional release). The tritium uptake in the tissue was determined as the sum of release+the tissue content after the experiment and expressed in Bq/g. For the evaluation of the basal tritium outflow the fractional release measured in four consecutive 3 min samples under drug free conditions were taken into account. The ATP-induced [^3H]Glu efflux calculated as the net release in response to the respective stimulus by subtracting the release before the stimulation from the values measured after stimulation. Selected samples collected under resting conditions and during the peak of the ATP-evoked response were subjected to further HPLC analyses.\nThe separation of pre-column dansylated amino acids was performed using a gradient elution-working mode at ambient temperature. The mobile phase A consisted of 5/95 (v/v) 78/22 acetonitrile/methanol in 15 mM ammonium formate buffer, and the mobile phase B was composed of 90/10 (v/v 78/22) acetonitrile/methanol in ammonium formate buffer, pH 3.7. The mobile phase B increased linearly (at 0.11 min to 50% 17 min to 72% and 26 min to 100%, followed by a final run to 54 min), the flow rate was 0.7 ml/min. The analytical and the trap column were equilibrated for 10 min, and enrichment and clean-up procedures were performed. The dansylated derivatives were detected using an absorbance detector (Agilent 1100) at a 319 nm wavelength. The retention time of the dansylated Glu was 11.4 min. Pre-column derivatization was performed by mixing 50 µl of dansyl chloride prepared by dissolving 5 mg 5-(dimethylamino)naphthalene-1-sulfonyl chloride in acetonitrile daily and adding 50 µl of 2 M sodium carbonate, which contained norvaline (20 µM) as an internal standard in 25 µl of sample. After a 10-min reaction time at 60°C, the mixture was acidified using 25 µl of 6 M formic acid and injected onto the “trap-column”."}, "[1]": {"system": "P2rx7+/+ and P2rx7−/− mice", "experiment": "Sucrose preference test (SPT), LPS-induced anhedonia", "assay_type": "in vivo, mouse", "settings": "P2rx7+/+ mice, subacute 4-day 50 mg/kg i.p., LPS 0.2 mg/kg i.p.", "description": "The experiments were performed using the two-bottle sucrose preference paradigm. The decreased preference for sucrose vs. water in this test has been proposed to reflect impaired sensitivity towards reward and to model anhedonia. Mice were offered a choice of 2% sucrose solution or water during 12-hour nocturnal periods (starting at 19∶00). The bottles were weighed before and after each test session to monitor sucrose and water consumption. The relative position of the sucrose and water bottles were swapped every night to avoid place preferences. The baseline sucrose intake was measured under a habituation period of 3–4 days before administering the treatments, and the mean volume ingested over the last 3 training sessions was used as a baseline value. The sucrose consumption was measured for 4 consecutive nights after LPS (0.2 mg/kg i.p.) or saline administration and expressed as g/100 g body weight or as a percentage of the baseline (%)."}}}
{"smiles": "CCOc1ccc(Nc2ccc(/C(=C3C=C/C(=[N+](/CC)Cc4cccc(S(=O)(=O)[O-])c4)C=C/3C)c3ccc(N(CC)Cc4cccc(S(=O)(=O)O)c4)cc3C)cc2)cc1", "note": "[BBG, Brilliant blue G]", "values": [{"measurement": "residual ATP-evoked [3H]Glu efflux in presence of antagonist", "setting": "acute hippocampal slices", "value": "0.56±0.25", "unit": "%"}, {"measurement": "sucrose consumption one day after LPS injection", "setting": "[1]", "value": "did not change"}, {"measurement": "sucrose consumption over subsequent days after LPS", "setting": "[1]", "value": "significantly increased"}]}
